Laboratory results published in patent US10986835B2, “Use of 9-tricosene to control Drosophila suzukii” (Globachem NV, priority 2016, dated 2021).

How the values were obtained:
[1] = system: Drosophila suzukii; test: Behavior assay: courtship behavior of wild type 4-day-old males towards perfumed flies; format: in vivo; details: compound in n-hexane painted onto abdomen; 4 tested conditions (perfumed 1-day-old females, 1-day-old males, 4-day-old females, 4-day-old males) paired with wild type 4-day-old males; filmed two hours; FIG. 1
Protocol: (§1) Drosophila suzukii adults were caught in the wild (Sint-Truiden, Limburg, Belgium). The flies were reared in quarantined facilities at 21° C. on Cornmeal-sucrose-yeast-agar medium.
(§2) All flies were collected within 12 hours of eclosing, after which they were used to make one-day-old samples or aged to four days old. The four-day-old socially nave flies were aged separated from the other sex, contrary to the socially experienced flies, which were aged, mixed with the other sex.
(§3) N-hexane (95%), n-heneicosane (98%), n-tricosane (98%), (Z)-7-tricosene (98%) and (Z)-9-tricosene (97%) were bought from Thermo-Fischer and Sigma Aldrich. (Z)-5-tricosene (99%) and 2-methyloctacosane (95%) were synthesized by a hired company, Ecosynth (Gent, Belgium). These compounds were dissolved in n-hexane (95%) and painted onto the abdomen of Drosophila suzukii flies using number 2 paintbrushes. The four-day-old flies were perfumed 24 hours prior to testing, one-day-old flies 1 hour prior to testing.
Behavior assays were performed in a room with regulated temperature (21° C.) and always at the same time (10 h30). The perfumed Drosophila suzukii flies were put individually with a wild type four-day-old Drosophila suzukii male in a circular arena (3 cm diameter). Every couple was filmed for two hours, due to the low activity rate of the species, using Sony Handycams CX240. Subsequently these videos were analyzed for courtship behavior and copulation based on Mazzoni et al. 2013 (Plos One 8(11): e80708). The behavioral data was analyzed using a contingency table and followed by t-tests, as well as one-way ANOVA tests for the continuous data.
Behavior experiments were performed as follows. Four different conditions of flies were perfumed: one-day-old females, one-day-old males, four-day-old females and four-day-old males. These perfumed flies were paired with wild type four-day-old males. Subjects were scored for both courtship modules as well as copulation. As a control the solvent for the perfumes (n-hexane) was used.

[2] = system: Drosophila suzukii; test: Behavior assay: copulation between wild type 4-day-old males and perfumed 4-day-old females; format: in vivo; details: perfumed four-day-old females paired with wild type four-day-old males; filmed two hours; FIG. 3
Protocol: as §1, §2
as §3, with “The four-day-old flies were perfumed 24 hours prior to testing, one-day-old flies 1 hour prior to testing.” left out
Behavior assays were performed in a room with regulated temperature (21° C.) and always at the same time (10 h30). […] Subsequently these videos were analyzed for courtship behavior and copulation based on Mazzoni et al. 2013 (Plos One 8(11): e80708). The behavioral data was analyzed using a contingency table and followed by t-tests, as well as one-way ANOVA tests for the continuous data.
Behavior experiments were performed as follows. […] Subjects were scored for both courtship modules as well as copulation. […]

Compound	effect on occurrence of courtship [1]	effect on occurrence of copulation [2]
CCCCCCCCCCCCCCCCCCCCCCC [n-tricosane]	no significant differences	
CCCC/C=C\CCCCCCCCCCCCCCCCC [(Z)-5-tricosene]	no significant differences	
CCCCCCCCCCCCCCCCCCCCC [n-heneicosane]	no significant differences	
CCCCCCCC/C=C\CCCCCCCCCCCCC [(Z)-9-tricosene]	no significant differences	significantly decreased
CCCCCCCCCCCCCCCCCCCCCCCCCCC(C)C [2-methyloctacosane]	no significant differences	
CCCCCC/C=C\CCCCCCCCCCCCCCC [(Z)-7-tricosene]	no significant differences	significantly decreased
